In US4255183A, “Substituted phenyl urea and herbicides for use in paddy field” (Hokko Chemical Industry Co., Ltd., priority 1977, dated 1981):
Read-outs that look alike come from different tables or passages of the source.

Columns and labels:
[1] = test system: Echinochloa crus-galli var. oryzicola; experiment: Test Example 4: field test in submerged directly seeded paddy field, Echinochloa crus-galli var. oryzicola; type: in vivo; details: submerged direct seeding
Experimental: (§1) In a Wagner pot of 1/500 are, paddy field soil (alluvial soil) was placed and 50 seeds of Echinochloa crus-galli var. oryzicola and 30 seeds of paddy rice were seeded in the surface layer of said soil and the submerging depth was kept at about 1 cm. When Echinochloa crus-galli var. oryzicola reached at the one leaf stage and 5-leaf stage, the emulsion of a predetermined concentration, prepared according to Example 4 was added dropwise. After 30 days from the treatment with the chemical, dry weights of Echinochloa crus-galli var. oryzicola and paddy rice were measured and the inhibition rate was calculated with reference to untreated area. [formula]
In a 10 m^2 paddy field, 30 g of Echinochloa crus-galli var. oryzicola seeds were seeded at the time of puddling and the depth of submerging was kept at 3-5 cm. 3 Days after the puddling, 50 g of paddy rice at the emergence stage (Asahi species) were seeded. When Echinochloa crus-galli var. oryzicola and paddy rice reached a 2- to 3-leaf stage, a predetermined dose of the emulsion prepared according to Example 4 was applied uniformly by means of a manual spraying machine. Test results were examined 21 days after the application of the chemicals in the similar manner as in Test Example 1.
The comparative chemical 1 used was that commercially available and the comparative chemical 2 used was prepared according to Example 4.

[2] = test system: Echinochloa crus-galli var. oryzicola; experiment: Test Example 3: field test in transplanted paddy field, Echinochloa crus-galli var. oryzicola; type: in vivo; details: farm test in transplanted paddy field
Experimental: as §1
In a 10 m^2 paddy field, young seedlings of paddy rice (Asahi species) at the 2,5-leaf stage were transplanted 30 days after the puddling the submerging at the depth of 3-5 cm. 25 Days after the transplantation, when Echinochloa crus-galli var. oryzicola reached 4-leaf stage, a predetermined dose of the granule prepared according to Example 1 was applied. Test results were examined 60 days after the transplantation of paddy rice in the similar manner as in Test Example 1.
Comparative chemicals used were all those commercially available and in the case of the comparative chemical 2, CNP was applied 3 days after the transplantation of paddy rice and after 25 days a mixture of Benthiocarb and Simetryne was applied.

[3] = test system: Echinochloa crus-galli var. oryzicola; experiment: Test Example 2: concrete pot test on killing effect, Echinochloa crus-galli var. oryzicola; type: in vivo
Experimental: as §1
(§2) In a concrete pot of 1/400 are (50 cm×50 cm), paddy field soil (alluvial soil) was placed and 200 seeds of Echinochloa crus-galli var. oryzicola were seeded in 10 surface layer of said soil and the soil was submerged at about 3 cm depth. Before emergence of Echinochloa crus-galli var. oryzicola, paddy rice at 2.5-leaf stage (Asahi species) was transplanted at the rate of 8 stubs per pot, planting 3 seedlings per stub. At the one-leaf stage (3.5 leaves stage of paddy rice) and 5 leaves stage (7 leaves stage of paddy rice) of Echinochloa crus-galli var. oryzicola, the granule prepared according to Example 1 was applied. […] 30 Days after the treatment with the chemical, examination was made in the similar manner as Test Example 1 to obtain results as shown in Table 2.
(§3) In the table, as the comparative chemicals CPN, Benthiocarb, Molinate and Simetryne, those commercially available were used and the comparative chemicals A and B (as mentioned before) used were prepared according to the process for preparing the compound of this invention.

paddy rice [4] = experiment: whole plant or invertebrate; type: in vivo, paddy rice (Asahi species); details: in vivo
Experimental: as §1, §2, §3

[5] = test system: Echinochloa crus-galli var. oryzicola; experiment: Test Example 1: pot test on selectivity, inhibition of Echinochloa crus-galli var. oryzicola; type: in vivo; details: for inhibition at 750 g/ha / inhibition at 1500 g/ha / inhibition at 3000 g/ha / inhibition at 6000 g/ha / inhibition at 9000 g/ha: Echinochloa crus-galli, 720 h
Experimental: as §1
(§4) The comparative chemicals used, i.e. DCMU and Linuron, were those commercially available, and the comparative chemicals A and B used were prepared according to the process for formulating the compound of this invention.

paddy rice [6] = experiment: Test Example 1: pot test on selectivity, inhibition of paddy rice; type: in vivo; details: for inhibition at 750 g/ha / inhibition at 1500 g/ha / inhibition at 3000 g/ha / inhibition at 6000 g/ha / inhibition at 9000 g/ha: Oryza sativa, 720 h
Experimental: as §1, with “When Echinochloa crus-galli var. oryzicola reached at the one leaf stage and 5-leaf stage, the emulsion of a predetermined concentration, prepared according to Example 4 was added dropwise.” left out
as §4

various weeds = details: known upland herbicides; cited from earlier work
paddy rice [7] = details: known upland herbicides; cited from earlier work
[8] = versus 3-(4-(3-chloro-2-butenyloxy)phenyl)-1,1-dimethyl urea
[9] = read-out: Inhibition (%) by treatment at 1-leaf stage, E. crus-galli var. oryzicola
[10] = read-out: Inhibition (%) by treatment at 5-leaf stage, E. crus-galli var. oryzicola
[11] = read-out: Inhibition (%) by treatment at 1-leaf stage, paddy rice
[12] = read-out: Inhibition (%) by treatment at 5-leaf stage, paddy rice

With `CC=CCOc1ccc(NC(=O)N(C)C)cc1` [the compound of the invention, 3-(4-crotyloxyphenyl)-1,1-dimethyl urea] the “killing of Echinochloa crus-galli var. oryzicola in submerged direct seeding cultivation” value [1] was “selectively kill”, the “killing of Echinochloa crus-galli var. oryzicola not killed by conventional systematic treatment” value [2] was “completely killed” and the “killing of Echinochloa crus-galli var. oryzicola at 5-leaf stage” value ([3]; 5-leaf stage) was “completely kill”. The “herbicidal activity against Echinochloa crus-galli var. oryzicola at 1-leaf stage” value ([3]; compared with the known herbicides) was “similarly high herbicidal activity”, the “Chemical injury on paddy rice” value (paddy rice [4]) was “no chemical injury on paddy rice” and the “power for killing Echinochloa crus-galli var. oryzicola at the 5-leaf stage” value ([5]; as compared with CBPDU) was “more increased”. The “herbicidal activity against Echinochloa crus-galli var. oryzicola at 5-leaf stage” value [5, 8] was “superior”, the “herbicidal activity against Echinochloa crus-galli var. oryzicola” value ([5]; versus a compound disclosed in Japanese Pat. No. 2329/1973) was “superior herbicidal activity” and the “Chemical injury on paddy rice” value (paddy rice [6]; as compared with CBPDU) was “more decreased”. For the same molecule, the chemical injury (paddy rice [6]; [8]) was “superior” and the selectivity (paddy rice [6]; [8]) was “selectivity over a wide range”.
With `CON(C)C(=O)Nc1ccc(Cl)c(Cl)c1` [Linuron, 3-(3,4-dichlorophenyl)-1-methoxy-1-methyl urea] the inhibition at 750 g/ha [5, 9] was 82%, the inhibition at 1500 g/ha [5, 9] was 100% and the inhibition at 3000 g/ha [5, 9] was 100%. It also gave an inhibition at 6000 g/ha [5, 9] of 100%, an inhibition at 9000 g/ha [5, 9] of 100% and an inhibition at 750 g/ha [5, 10] of 72%. It also gave an inhibition at 1500 g/ha [5, 10] of 100%, an inhibition at 3000 g/ha [5, 10] of 100% and an inhibition at 6000 g/ha [5, 10] of 100%. For the same molecule, the inhibition at 9000 g/ha [5, 10] was 100%, the “herbicidal activity against various weeds” value (various weeds) was “strong herbicidal activity” and the inhibition at 750 g/ha (paddy rice [6]; [11]) was 81%. It also gave an inhibition at 1500 g/ha (paddy rice [6]; [11]) of 100%, an inhibition at 3000 g/ha (paddy rice [6]; [11]) of 100% and an inhibition at 6000 g/ha (paddy rice [6]; [11]) of 100%. For the same molecule, the inhibition at 9000 g/ha (paddy rice [6]; [11]) was 100%, the inhibition at 750 g/ha (paddy rice [6]; [12]) was 53% and the inhibition at 1500 g/ha (paddy rice [6]; [12]) was 100%. The inhibition at 3000 g/ha (paddy rice [6]; [12]) was 100%, the inhibition at 6000 g/ha (paddy rice [6]; [12]) was 100% and the inhibition at 9000 g/ha (paddy rice [6]; [12]) was 100%. The “selectivity between Echinochloa crus-galli var. oryzicola and paddy rice” value (paddy rice [6]; in vivo) was “kill not only Echinochloa crus-galli var. oryzicola but also paddy rice” and the “chemical injury to paddy rice” value (paddy rice [7]) was “strong chemical injury to paddy rice”.
